Experimental data published in paper PMC8316815, “Overexpression of ABCG2 Confers Resistance to MLN7243, a Ubiquitin-Activating Enzyme (UAE) Inhibitor” (Frontiers in Cell and Developmental Biology, 2021).

Legend:
ABCG2 [1] = target: T1, ABCG2 (Homo sapiens, UniProt Q9UNQ0); experiment: ABCG2 ATPase stimulation in membrane vesicles; supported by HPLC accumulation in HEK293/ABCG2-WT cells; assay type: biochemical; parameters: ABCG2 membrane vesicles (PREDEASY ATPase Kit)
T1 sequence (Q9UNQ0 1-655): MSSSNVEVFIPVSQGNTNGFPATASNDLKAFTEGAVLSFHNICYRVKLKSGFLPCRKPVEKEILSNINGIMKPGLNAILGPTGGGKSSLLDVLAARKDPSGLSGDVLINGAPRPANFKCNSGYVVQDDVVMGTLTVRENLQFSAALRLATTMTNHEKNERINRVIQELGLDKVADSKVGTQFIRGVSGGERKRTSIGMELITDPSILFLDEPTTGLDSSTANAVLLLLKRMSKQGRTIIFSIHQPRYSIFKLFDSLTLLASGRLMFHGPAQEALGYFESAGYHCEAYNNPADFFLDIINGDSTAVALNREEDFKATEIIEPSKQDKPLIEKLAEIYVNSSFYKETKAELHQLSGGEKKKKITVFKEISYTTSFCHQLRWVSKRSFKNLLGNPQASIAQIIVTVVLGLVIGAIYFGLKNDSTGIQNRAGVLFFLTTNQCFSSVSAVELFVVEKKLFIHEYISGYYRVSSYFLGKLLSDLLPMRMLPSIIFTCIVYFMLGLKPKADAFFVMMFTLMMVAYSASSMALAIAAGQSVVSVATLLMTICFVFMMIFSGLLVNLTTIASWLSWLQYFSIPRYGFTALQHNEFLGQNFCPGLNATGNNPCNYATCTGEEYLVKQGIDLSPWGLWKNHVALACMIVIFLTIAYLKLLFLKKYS

ABCG2 [2] = target: T1, ABCG2; experiment: [3H]-mitoxantrone accumulation in NCI-H460 and NCI-H460/TPT10 cells, restored by Ko143; assay type: cell-based; parameters: ABCG2-overexpressing NCI-H460/TPT10 cells

EC50 (ABCG2 [1]) [nM]	SMILES	[3H]-mitoxantrone accumulation in NCI-H460 and NCI-H460/TPT10 cells, restored by (ABCG2 [2])
1780	NS(=O)(=O)OC[C@H]1C[C@@H](Nc2ccnc3cc(-c4cccc(SC(F)(F)F)c4)nn23)[C@H](O)[C@@H]1O [MLN7243]	
	O=C1c2c(O)ccc(O)c2C(=O)c2c(NCCNCCO)ccc(NCCNCCO)c21 [mitoxantrone]	suggesting a large portion of mitoxantrone was pumped out from the cells by ABCG2 transporter
